Measurements: US11932634B2 (Gilead Sciences, Inc., priority 2021, dated 2024)

Legend:
[1] = tested on: Jurkat NFκB-luciferase cells; test: Jurkat NFκB-Luciferase Assay; type: cell-based; details: Homo sapiens; Jurkat NFκB-luciferase cells activated with anti-CD3 antibody (OKT3), 2.5 hrs at 37° C., One-Glo Ex; geometric mean; read-out: DGK NFKb Luciferase EC50;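 also: bioluminescence read-out normalized to DMSO basal activation and to maximum enhancement at 1 µM compound, rising signal indicating stronger T-cell activation through DGKα inhibition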
[2] = target: T1, human DGKα (Homo sapiens, UniProt P23743); test: DGKα Biochemical Activity Assay (ADP-Glo);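 also: recombinant enzyme converting diacylglycerol in lipid micelles with ATP, ADP formed detected by luminescence, IC50 from a four-parameter nonlinear fit, geometric mean across experiments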
T1 construct: purchased Carna Biosciences'; inferred from the same paragraph's 'obtained from Carna Biosciences')
T1 sequence (P23743 whole entry): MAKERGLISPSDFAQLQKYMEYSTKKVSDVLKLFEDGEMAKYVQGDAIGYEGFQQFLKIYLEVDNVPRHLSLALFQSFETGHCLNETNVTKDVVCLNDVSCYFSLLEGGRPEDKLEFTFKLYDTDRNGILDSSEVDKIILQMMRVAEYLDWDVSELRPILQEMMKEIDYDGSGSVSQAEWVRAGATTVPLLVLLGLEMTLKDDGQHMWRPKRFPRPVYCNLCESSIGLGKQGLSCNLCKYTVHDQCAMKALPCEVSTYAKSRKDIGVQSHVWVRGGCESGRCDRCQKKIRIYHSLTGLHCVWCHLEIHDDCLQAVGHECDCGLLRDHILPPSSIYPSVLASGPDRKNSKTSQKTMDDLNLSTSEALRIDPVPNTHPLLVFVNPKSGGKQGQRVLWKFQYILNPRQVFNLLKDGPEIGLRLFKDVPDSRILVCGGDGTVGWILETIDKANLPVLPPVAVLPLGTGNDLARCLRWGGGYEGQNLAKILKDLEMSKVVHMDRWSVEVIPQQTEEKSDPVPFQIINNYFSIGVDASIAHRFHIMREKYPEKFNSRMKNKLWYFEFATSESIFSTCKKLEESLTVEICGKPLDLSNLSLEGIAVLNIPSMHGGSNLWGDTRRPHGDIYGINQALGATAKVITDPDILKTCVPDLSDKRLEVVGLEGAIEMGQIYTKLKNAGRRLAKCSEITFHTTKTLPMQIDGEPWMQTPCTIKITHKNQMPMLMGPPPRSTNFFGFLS

For [2H]C([2H])([2H])n1c(=O)nc(N2CCCCc3c(C#CC4(C)CC4)cccc32)c2c(F)cccc21 [Example 86, 5-fluoro-4-[6-[2-(1-methylcyclopropyl)ethynyl]-2,3,4,5-tetrahydro-1-benzazepin-1-yl]-1-(trideuteriomethyl)quinazolin-2-one], the EC50 [1] was 0.133 nM and the IC50 [2] was 1.13 nM.

Work on [2H]C([2H])([2H])n1c(=O)nc(N2CCOCc3c(C#CC4(C(F)(F)F)CCN(C)C4)cccc32)c2c(F)cccc21 (stereo not drawn) [Example 170, 5-fluoro-4-[6-[2-[1-methyl-3-(trifluoromethyl)pyrrolidin-3-yl]ethynyl]-3,5-dihydro-2H-4,1-benzoxazepin-1-yl]-1-(trideuteriomethyl)quinazolin-2-one] yielded an EC50 [1] of 3.75 nM and an IC50 [2] of 25.7 nM.

[2H]C([2H])([2H])n1c(=O)nc(N2CCOCc3c(C#CC(C)(C)O)cccc32)c2c(F)cccc21 [Example 94, 5-fluoro-4-[6-(3-hydroxy-3-methyl-but-1-ynyl)-3,5-dihydro-2H-4,1-benzoxazepin-1-yl]-1-(trideuteriomethyl)quinazolin-2-one] was tested, and the EC50 [1] was 16.1 nM and the IC50 [2] was 7.77 nM.

In the case of O=c1nc(N(CC(F)F)c2cccc(C#CC3(C(F)(F)F)CC3)c2F)c2cc(F)ccc2[nH]1 [Example 48, 4-[N-(2,2-difluoroethyl)-2-fluoro-3-[2-[1-(trifluoromethyl)cyclopropyl]ethynyl]anilino]-6-fluoro-1H-quinazolin-2-one], the EC50 [1] is reported as 5.29 nM and the IC50 [2] is reported as 62.8 nM.

O=c1nc(N(CC(F)F)c2cc(F)cc(C#CC3(C(F)(F)F)CC3)c2)c2c(F)c(F)ccc2[nH]1 [Example 35, 4-[N-(2,2-difluoroethyl)-3-fluoro-5-[2-[1-(trifluoromethyl)cyclopropyl]ethynyl]anilino]-5,6-difluoro-1H-quinazolin-2-one] gave an EC50 [1] of 0.999 nM and an IC50 [2] of 159 nM.

Work on O=c1nc(N2CCCc3c(C#CC4(C(F)F)CC4)cncc32)c2c(F)c(F)ccc2[nH]1 [Example 108, 4-(5-((1-(difluoromethyl)cyclopropyl)ethynyl)-3,4-dihydro-1,7-naphthyridin-1(2H)-yl)-5,6-difluoroquinazolin-2(1H)-one] yielded an EC50 [1] of 1.43 nM and an IC50 [2] of 6.85 nM.

Compound [2H]C([2H])([2H])n1c(=O)nc(N2CCOCc3c(C#Cc4coc(C)n4)cccc32)c2c(F)cccc21 [Example 177, 5-fluoro-1-(methyl-d3)-4-(6-((2-methyloxazol-4-yl)ethynyl)-2,3-dihydrobenzo[e][1,4]oxazepin-1(5H)-yl)quinazolin-2(1H)-one] has an EC50 [1] of 18.8 nM and an IC50 [2] of 17.5 nM.

For [2H]C([2H])([2H])n1c(=O)nc(N(CC(F)F)c2cc(F)cc(C#CC3(C(F)(F)F)CC3)c2)c2c(F)cccc21 [Example 22, 4-[N-(2,2-difluoroethyl)-3-fluoro-5-[2-[1-(trifluoromethyl)cyclopropyl]ethynyl]anilino]-5-fluoro-1-(trideuteriomethyl)quinazolin-2-one], the EC50 [1] was 1.61 nM and the IC50 [2] was 55.6 nM.

[2H]C([2H])([2H])n1c(=O)nc(N(CC(F)F)c2ccnc(C#CC(C)(C)C#N)c2)c2c(F)cccc21 [Example 139, 4-[4-[2,2-difluoroethyl-[5-fluoro-2-oxo-1-(trideuteriomethyl)quinazolin-4-yl]amino]-2-pyridyl]-2,2-dimethyl-but-3-ynenitrile] showed an EC50 [1] of 15.5 nM and an IC50 [2] of 18.3 nM.

O=c1nc(N2CCCc3c(C#CC4(C(F)(F)F)CC4)cncc32)c2c(F)c(F)ccc2[nH]1 [Example 74, 5,6-difluoro-4-(5-((1-(trifluoromethyl)cyclopropyl)ethynyl)-3,4-dihydro-1,7-naphthyridin-1(2H)-yl)quinazolin-2(1H)-one] gave an EC50 [1] of 0.222 nM and an IC50 [2] of 2.83 nM.

[2H]C([2H])([2H])n1c(=O)nc(N2CCOCc3c(C#CC(C)(C)NC(=O)C(C)(C)C(F)F)cccc32)c2c(F)cccc21 [Example 179, 3,3-difluoro-N-(4-(1-(5-fluoro-1-(methyl-d3)-2-oxo-1,2-dihydroquinazolin-4-yl)-1,2,3,5-tetrahydrobenzo[e][1,4]oxazepin-6-yl)-2-methylbut-3-yn-2-yl)-2,2-dimethylpropanamide] was tested, and the EC50 [1] was 15.1 nM and the IC50 [2] was 3.48 nM.

In the case of [2H]C([2H])([2H])n1c(=O)nc(N2CCCc3c(C#CC4(C(F)(F)F)CC4)cncc32)c2c(F)c(F)ccc21 [Example 160, 5,6-difluoro-1-(methyl-d3)-4-(5-((1-(trifluoromethyl)cyclopropyl)ethynyl)-3,4-dihydro-1,7-naphthyridin-1(2H)-yl)quinazolin-2(1H)-one], the EC50 [1] is reported as 0.936 nM and the IC50 [2] is reported as 5.36 nM.

Compound O=c1nc(N(CC(F)F)c2cc(F)cc(C#CC3(C(F)(F)F)CC3)c2)c2ccc(Cl)cc2[nH]1 [Example 26, 7-chloro-4-[N-(2,2-difluoroethyl)-3-fluoro-5-[2-[1-(trifluoromethyl)cyclopropyl]ethynyl]anilino]-1H-quinazolin-2-one] has an EC50 [1] of 1.07 nM and an IC50 [2] of 314 nM.

Compound O=c1nc(N(CC(F)F)c2ccnc(C#CC3CC3)c2F)c2c(F)cccc2[nH]1 [Example 122, 4-[[2-(2-cyclopropylethynyl)-3-fluoro-4-pyridyl]-(2,2-difluoroethyl)amino]-5-fluoro-1H-quinazolin-2-one] has an EC50 [1] of 3.46 nM and an IC50 [2] of 7 nM.

O=c1nc(N2CCOCc3c(C#CC4(C(F)(F)F)CC4)cccc32)c2cc(F)cc(F)c2[nH]1 [Example 102] showed an EC50 [1] of 1.75 nM and an IC50 [2] of 14.7 nM.

CC(C)(O)C#Cc1cccc2c1COCCN2c1nc(=O)[nH]c2c(F)cc(F)cc12 [Example 103] gave an EC50 [1] of 47.4 nM and an IC50 [2] of 8.98 nM.

CC(C)(O)C#Cc1cccc2c1CCCCN2c1nc(=O)[nH]c2cccc(F)c12 [Example 81, 5-fluoro-4-[6-(3-hydroxy-3-methyl-but-1-ynyl)-2,3,4,5-tetrahydro-1-benzazepin-1-yl]-1H-quinazolin-2-one] was tested, and the EC50 [1] was 2.5 nM and the IC50 [2] was 3.6 nM.

In the case of CC(C)(C)C(O)C#Cc1cccc2c1CCCN2c1nc(=O)[nH]c2cccc(F)c12 (stereo not drawn) [Example 53, 5-fluoro-4-[5-(3-hydroxy-4,4-dimethyl-pent-1-ynyl)-3,4-dihydro-2H-quinolin-1-yl]-1H-quinazolin-2-one], the EC50 [1] is reported as 2.74 nM and the IC50 [2] is reported as 47.8 nM.

Compound [2H]C([2H])([2H])n1c(=O)nc(N2CCOCc3c(C#CC(C)(C)C(F)(F)F)cccc32)c2c(F)cccc21 [Example 109, 5-fluoro-1-(methyl-d3)-4-(6-(4,4,4-trifluoro-3,3-dimethylbut-1-yn-1-yl)-2,3-dihydrobenzo[e][1,4]oxazepin-1(5H)-yl)quinazolin-2(1H)-one] has an EC50 [1] of 0.501 nM and an IC50 [2] of 6.05 nM.

For [2H]C([2H])([2H])n1c(=O)nc(N2CCOCc3c(C#CC(C)(C)NC(=O)C4(C(F)F)CC4)cccc32)c2c(F)cccc21 [Example 178, 1-(difluoromethyl)-N-(4-(1-(5-fluoro-1-(methyl-d3)-2-oxo-1,2-dihydroquinazolin-4-yl)-1,2,3,5-tetrahydrobenzo[e][1,4]oxazepin-6-yl)-2-methylbut-3-yn-2-yl)cyclopropane-1-carboxamide], the EC50 [1] was 9.33 nM and the IC50 [2] was 6.36 nM.

For CC(F)(F)C1(C#Cc2nccc3c2CCCN3c2nc(=O)[nH]c3cccc(F)c23)CC1 [Example 132, 4-[5-[2-[1-(1,1-difluoroethyl)cyclopropyl]ethynyl]-3,4-dihydro-2H-1,6-naphthyridin-1-yl]-5-fluoro-1H-quinazolin-2-one], the EC50 [1] was 9.96 nM and the IC50 [2] was 66.1 nM.
